One compound from patent publication US11767305B2, “Advantageous benzofuran compositions for mental disorders or enhancement” (Tactogen Inc, priority 2020, dated 2023) can be followed below.

Usually EC50 stands for the concentration that produces a half-maximal response. One may read the IC50 as the point on the concentration scale where inhibition reaches its midpoint.

In test [1] the target is 5-HT1BR (Homo sapiens (Human), UniProt P28222). Nature of the test: 5-HT1BR cAMP secondary messenger agonist assay (HitHunter, CHO-K1). It is filed as cell-based. The source says:
The 5-HT1BR cAMP secondary messenger agonist assay used a panel of CHO-K1 cell lines stably expressing non-tagged GPCRs that endogenously signal through cAMP. Hit Hunter® cAMP assays monitored the activation of a GPCR via Gi and Gs secondary messenger signaling in a homogenous, non-imaging assay format using DiscoverX Enzyme Fragment Complementation (EFC) with β-galactosidase as the functional endpoint.
The enzyme was split into two complementary portions: Enzyme Acceptor (EA) and Enzyme Donor (ED). Exogenously introduced ED fused to cAMP (ED-cAMP) competed with endogenously generated cAMP for binding to an anti-cAMP-specific antibody. Active β-galactosidase was formed by complementation of exogenous EA to any unbound ED-cAMP.
Cell lines were expanded from freezer stocks according to standard procedures. Cells were seeded in a total volume of 20 μL into white walled, 384-well microplates and incubated at 37° C. for the appropriate time prior to testing. cAMP modulation was determined using the DiscoverX HitHunter cAMP XS+ assay.
For agonist determination, cells were incubated with sample (in the presence of EC80 forskolin to induce response if measuring Gi secondary messenger signaling). Media was aspirated from cells and replaced with 15 μL 2:1 HBSS/10 mM Hepes:cAMP XS+ Ab reagent. Intermediate dilution of sample stocks was performed to generate 4×sample in assay buffer (optionally containing 4×EC80 forskolin). 5 μL of 4×sample was added to cells and incubated at 37° C. or room temperature for 30 or 60 minutes, as appropriate. Final assay vehicle concentration was 1%.

For test [2], the target named is 5-HT2A receptors (Homo sapiens (Human), UniProt P28223). As to the kind of experiment: 5-HT2A agonist and antagonist calcium assay (Calcium NWPLUS, FLIPR). It is filed as cell-based. The method, then: The DiscoveRx Calcium NWPLUS Assay was used for detection of changes in intracellular calcium as signalled by an increase of dye fluorescence in cells expressing 5-HT2A receptors. Signal was measured on a fluorescent plate reader equipped with fluidic handling capable of detecting rapid changes in fluorescence upon compound stimulation.
To conduct the assay, cell lines were expanded from freezer stocks according to standard procedures. Cells (10,000 cells/well) were seeded in a total volume of 50 μL (200 cells/μL) into black-walled, clear-bottom, Poly-D-lysine coated 384-well microplates and incubated at 37-C for the appropriate time prior to testing. DMSO concentration for all readouts was ≤0.2%.
Assays were performed in 1×DyeLoading Buffer consisting of 1×Dye (DiscoverX, Calcium No WashPLUS kit, Catalog No. 90-0091), 1×Additive A and 2.5 mM Probenecid in HBSS/20 mM Hepes. Probenecid was prepared fresh. Cells were loaded with dye prior to testing. Media was aspirated from cells and replaced with 25 μL Dye Loading Buffer. Test compounds were assayed at 10 concentrations with the highest concentration either 30 or 10 μM and subsequent concentrations using a 0.33 dilution factor. Cells with testing sample were incubated for 45 minutes at 37° C. and then 20 minutes at room temperature. After dye loading, cells were removed from the incubator and 25 μL of 2×compound in HBSS/20 mM Hepes was added using a FLIPR Tetra (MDS). […]
Compound agonist activity was measured on a FLIPR Tetra. Calcium mobilization was monitored for 2 minutes with a 5 second baseline read. FLIPR read-Area under the curve was calculated for the two minute read. Compound activity was analyzed using CBIS data analysis suite (ChemInnovation, CA). Percentage activity was calculated as 100%×(mean RFU of test sample−mean RFU of vehicle control)/(mean MAX RFU control ligand −mean RFU of vehicle control). For antagonist mode assays, percentage inhibition was calculated as 100%×(1−(mean RFU of test sample−mean RFU of vehicle control)/(mean RFU of EC80 control−mean RFU of vehicle control)).

In test [3] the target is 5-HT2B (Homo sapiens (Human), UniProt P41595). As to the kind of experiment: 5-HT2B agonist and antagonist calcium assay (Calcium NWPLUS, FLIPR). It is filed as cell-based.
In test [4] the target is MAO-A (Homo sapiens (Human), UniProt P21397). As to the kind of experiment: MAO-A inhibition assay (kynuramine). It counts as biochemical.
Procedure: MAO-A and test compounds were preincubated at 37° C. for 15 minutes before substrate addition. Test compounds were assayed at 10 concentrations with the highest concentration either 30 or 10 μM and subsequent concentrations using a 0.33 dilution factor. The reaction was initiated by addition of kynuramine and incubated at 37° C. for 30 minutes. The reaction was terminated by addition of NaOH. The amount of 4-hydroquioline formed was determined through spectrofluorimetric readout with the emission detection at 380 nm and excitation wavelength 310 nm.
Test [5] concerns the target human 5-HT transporter (hSERT) (Homo sapiens (Human), UniProt P31645). Nature of the test: Human serotonin transporter  assay ([3H]imipramine radioligand, CHO cells). It counts as binding. The note with it: SERT IC50 (μM), 2 nM [3H]imipramine. The protocol: Benzofuran derivatives were evaluated for inhibiting the human 5-HT transporter (hSERT) as expressed in CHO cells using an antagonist radioligand assay (Tatsumi, M. et al. (1999), Eur. J Pharmacol., 368: 277-283). […] Test compounds were assayed in three trials at […], and 0.94868 μM.

The target in test [6] is T1, serotonin (5-HT) transporter (SERT) (Rattus norvegicus (Rat), UniProt P31652). As to the kind of experiment: Rat synaptosome SERT [3H]5-HT release assay. The note with it: [3H]5-HT release via SERT EC50 (nM), 5 nM [3H]5-HT.
For test [7], the target named is T1, serotonin (5-HT) transporter (SERT). As to the kind of experiment: Rat synaptosome SERT [3H]5-HT uptake inhibition assay. The note with it: Inhibition of [3H]5-HT Uptake at SERT IC50 (nM), 5 nM [3H]5-HT.

Sequence of MAO-A (P21397 whole entry, looked up, species assumed): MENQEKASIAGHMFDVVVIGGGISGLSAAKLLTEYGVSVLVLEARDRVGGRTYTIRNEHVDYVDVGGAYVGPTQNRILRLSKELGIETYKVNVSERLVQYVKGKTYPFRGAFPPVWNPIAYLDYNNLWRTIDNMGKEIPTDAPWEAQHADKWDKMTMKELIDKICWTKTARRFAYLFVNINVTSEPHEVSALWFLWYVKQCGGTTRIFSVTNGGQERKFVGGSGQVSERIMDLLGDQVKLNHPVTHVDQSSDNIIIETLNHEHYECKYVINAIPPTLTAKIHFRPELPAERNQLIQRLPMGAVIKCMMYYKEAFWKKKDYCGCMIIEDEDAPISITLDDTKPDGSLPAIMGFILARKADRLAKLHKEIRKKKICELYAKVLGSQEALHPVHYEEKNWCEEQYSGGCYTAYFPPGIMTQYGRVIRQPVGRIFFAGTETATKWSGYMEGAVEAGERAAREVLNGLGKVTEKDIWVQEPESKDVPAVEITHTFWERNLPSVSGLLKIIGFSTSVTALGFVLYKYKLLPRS
Sequence of 5-HT2B (P41595 whole entry, looked up, species assumed): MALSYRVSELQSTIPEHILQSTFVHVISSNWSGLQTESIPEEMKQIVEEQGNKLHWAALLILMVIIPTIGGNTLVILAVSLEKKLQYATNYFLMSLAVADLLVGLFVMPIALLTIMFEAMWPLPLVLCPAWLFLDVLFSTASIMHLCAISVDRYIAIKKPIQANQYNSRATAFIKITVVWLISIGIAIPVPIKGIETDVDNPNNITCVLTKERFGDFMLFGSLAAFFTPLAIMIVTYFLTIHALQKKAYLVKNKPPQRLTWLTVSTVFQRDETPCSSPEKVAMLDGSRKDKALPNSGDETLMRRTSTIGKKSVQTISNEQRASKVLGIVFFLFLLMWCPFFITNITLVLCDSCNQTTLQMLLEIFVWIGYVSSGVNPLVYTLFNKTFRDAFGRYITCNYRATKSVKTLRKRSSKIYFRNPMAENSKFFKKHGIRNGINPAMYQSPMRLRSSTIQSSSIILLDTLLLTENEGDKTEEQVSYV

For `CN[C@H](C)Cc1ccc2ccoc2c1` [Compound R-6-MAPB, (R)-1-(benzofuran-6-yl)-N-methylpropan-2-amine], the “Hill Coef.” value in test [1] worked out at 1.14. The EC50 in test [1] (5-HT1BR EC50 (μM)) came out at 1.48 µM; in test [1] (5HT1B Agonist (μM)), 1.48 µM; in test [2], 4620 nM; in test [6] it was 112 ± 17.5 nM. Moreover, the IC50 in test [3] was 400 nM; in test [4], 2120 nM; in test [5], 24 µM; in test [7], 623 ± 31.2 nM.
